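Compound exposure: 48 hours, 5 concentrations, 96-well plates. TGI: concentration producing complete growth inhibition.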 A value given as a limit tells only on which side of the number the result lay.

Consider nine compounds from PubChem BioAssay (NCI).

What all share (test): NCI anticancer screen, dose series, 48 h
The subject of assay [1] is HL-60(TB) leukemia.
Assay [2] has as its system OVCAR-4 ovarian.
Assay [3] concerns MOLT-4 leukemia.
Assay [4] deals with UO-31 renal.
For assay [5], the system named is MALME-3M melanoma.
Assay [6] deals with DU-145 prostate.
In assay [7] the test system is OVCAR-8 ovarian.
In assay [8] the test system is SNB-75 CNS.
For assay [9], the system named is OVCAR-3 ovarian.
Assay [10] deals with HOP-62 NSCLC.
Assay [11] deals with UACC-257 melanoma.
For assay [12], the system named is OVCAR-5 ovarian.
Assay [13] relates to HS 578T breast.
The test system of assay [14] is LOX IMVI melanoma.
Assay [15] deals with T-47D breast.
Assay [16] concerns HCT-116 colon.
Assay [17] concerns IGROV1 ovarian.

For `COc1ccccc1N1C(=O)CS(=O)(=O)C1c1cccc(Oc2ccccc2)c1` (stereo unspecified), the TGI in assay [1] is 79.9 µM; in assay [2], 38.6 µM; in assay [3], 38.8 µM; in assay [4], 35.1 µM; in assay [5], 30 µM; in assay [6] it was 71.2 µM. Further, the TGI in assay [7] stood at 34.3 µM; in [8] it was 48.2 µM; in assay [9] it was 41.2 µM; in assay [10], 49.2 µM; in assay [11], 25.6 µM; in assay [12], 59 µM. Further, the TGI in assay [13] is 48.2 µM; in [14], 36.1 µM; in assay [15], 48.3 µM; in [16], 27.3 µM.
On to `CCCCCCCCCCCCCCCCOCC(COP(=O)([O-])OCC[n+]1ccc(N(C)C)cc1)OCC` (stereo unspecified), for which the TGI amounted to 3.79 µM in assay [1]; 29.3 µM in assay [2]; 18.4 µM in assay [3]; 29.4 µM in [4]; 33 µM in [5]; 30.1 µM in assay [6]. For the same compound, the TGI in assay [7] was 38.2 µM; in [8] it was 18.8 µM; in assay [9] it was 24.8 µM; in [10], 26.3 µM; in [13], 31.8 µM; in assay [14] it was 25.5 µM. In addition, the TGI worked out at 33.8 µM in [17], 37.3 µM in assay [15] and 24.5 µM in [16].
On to `O=C(Cc1ccccc1)NNc1nc(NNC(=O)c2ccncc2)nc(Nc2ccccc2)n1`, for which the TGI in [1], in assay [2], in assay [3], in assay [4], in [5] and in [6] was more than 10 µM each time. For the same compound, the TGI in assay [7], in assay [8], in [10], in assay [11], in assay [13] and in assay [14] was more than 10 µM in each case. In addition, the TGI in assay [17] and in assay [15] was more than 10 µM in each case.
On to `CCOC(=O)CCC(NC(=O)c1ccc(Nc2nc3ccccc3n3cccc23)cc1)C(=O)OCC` (stereo unspecified), for which the TGI is more than 100 µM in [1]; 82.8 µM in assay [3]; more than 100 µM in [4]; more than 100 µM in [5]; 97.7 µM in assay [6]; 77.9 µM in [7]. In addition, the TGI in [8] was 53.6 µM; in [9], 44.6 µM; in assay [10], 54.2 µM; in assay [11], 72.5 µM; in assay [12] it was more than 100 µM; in assay [13], more than 100 µM. Besides, the TGI in assay [14] is more than 100 µM; in [17], more than 100 µM; in assay [15] it was 1.99 µM; in assay [16], more than 100 µM.
In the case of `COc1ccc2oc(=O)c3c(c2c1C)OC(C)(C)C=C3`, the TGI in assay [1], in [3], in assay [4], in [5], in [6] and in assay [7] was more than 100 µM throughout. Further, the TGI in [8], in assay [9], in assay [10], in assay [11], in assay [12] and in assay [13] was more than 100 µM in each case. The TGI in [14], in assay [17], in assay [15] and in [16] was more than 100 µM throughout.
With `CC(C)(C)OC(=O)NC(Cc1ccc(OCc2ccccc2)cn1)C(=O)NCc1ccccc1` (stereo unspecified), the TGI was 33.7 µM in assay [1]; 42 µM in assay [3]; 82.9 µM in [4]; 65.7 µM in [5]; more than 100 µM in assay [6]; 82.1 µM in [7]. Besides, the TGI is 78.5 µM in assay [8]; 43.2 µM in assay [9]; 56.1 µM in assay [10]; 34.5 µM in assay [11]; more than 100 µM in [12]; more than 100 µM in assay [13]. Further, the TGI is 39.4 µM in assay [14], more than 100 µM in [17], 56.5 µM in [15] and 83.6 µM in assay [16].
`O=C1CSC(c2ccc(Cl)cc2)N1c1ccc(-c2ccc(-n3c(-c4ccccc4)nc4ccccc4c3=O)cc2)cc1` (stereo unspecified): the TGI in assay [1] is more than 100 µM; in assay [2], 56.8 µM; in assay [3], 83.6 µM; in assay [4] it was 59.5 µM; in [5], more than 100 µM; in assay [6], more than 100 µM. For the same compound, the TGI in assay [7] was more than 100 µM; in assay [8] it was 26.6 µM; in [9], more than 100 µM; in assay [10] it was more than 100 µM; in [11], more than 100 µM; in assay [13] it was more than 100 µM. In addition, the TGI in assay [14] is 45.2 µM; in [17], more than 100 µM; in assay [15] it was 52.1 µM; in assay [16], more than 100 µM.
On to `COc1ccc2oc(=O)c(CC=C(C)C)c(O)c2c1C`, for which the TGI in [1], in assay [3], in assay [4], in assay [5], in assay [6] and in assay [7] was more than 100 µM throughout. Further, the TGI in assay [8], in assay [9], in [10], in assay [11], in [12] and in assay [13] was more than 100 µM throughout. For the same compound, the TGI in assay [14], in assay [17], in [15] and in [16] was more than 100 µM throughout.
For the compound `COc1cc2c(cc1OC)C1CCc3ccccc3CN1CC2` (stereo unspecified), the TGI in [1], in assay [2], in assay [3], in assay [5], in [6] and in [7] was more than 100 µM each time. Moreover, the TGI in [8], in assay [9], in assay [10], in assay [11], in [12] and in assay [13] was more than 100 µM in each case. Further, the TGI in [14], in [17], in assay [15] and in assay [16] was more than 100 µM in each case.
